Measurements reported in ChEMBL document CHEMBL1127238, “The discovery of L-699,392, a novel potent and orally active leukotriene D4 receptor antagonist” (Bioorg Med Chem Lett, 1994).

Tests used:
[1] = Compound was tested for plasma clearance in rats after 5 mg/kg of intravenous dosing; assay type: ADME, organism-based; design: dose 5 mg/kg, route intravenous; conditions: rat
[2] = molecular target: T1, Cysteinyl leukotriene receptor 1 (Cavia porcellus, UniProt Q2NNR5); assay: Inhibitory activity against binding of [3H]LTD4 to Cysteinyl leukotriene D4 receptor in guinea pig lung membranes; assay type: cell membranes, Membrane
T1 sequence (Q2NNR5 whole entry): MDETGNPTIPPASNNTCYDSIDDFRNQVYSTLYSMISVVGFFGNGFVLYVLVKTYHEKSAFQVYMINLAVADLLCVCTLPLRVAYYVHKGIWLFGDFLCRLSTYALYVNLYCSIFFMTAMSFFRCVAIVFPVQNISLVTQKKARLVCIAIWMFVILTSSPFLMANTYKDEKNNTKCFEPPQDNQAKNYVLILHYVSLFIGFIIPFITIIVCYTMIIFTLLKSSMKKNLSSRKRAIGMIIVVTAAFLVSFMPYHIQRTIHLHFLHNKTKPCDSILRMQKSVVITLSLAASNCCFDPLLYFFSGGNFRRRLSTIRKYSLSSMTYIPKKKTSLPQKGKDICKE

[3] = Apparent bioavailability in squirrel monkey was determined; assay type: ADME, organism-based; conditions: in vivo; read-out: Bioavailabiility

Row | Structure (SMILES) | clearance [1] [mL/min/kg] | IC50 [2] [nM] | bioavailability [3] [%]
1 | C[C@H](CS[C@@H](CCc1ccccc1C(=O)c1ccccc1)c1cccc(/C=C/c2ccc3ccc(Cl)cc3n2)c1)C(=O)O | 18 | 4.3 | 
2 | CC(=O)c1ccccc1CC[C@H](SC[C@@H](C)C(=O)O)c1cccc(/C=C/c2ccc3ccc(Cl)cc3n2)c1 | 11 | 3 | 52
3 | C[C@H](CS[C@@H](CCc1ccccc1CO)c1cccc(/C=C/c2ccc3ccc(Cl)cc3n2)c1)C(=O)O | 5 | 3.1 | 
4 | COC(=O)c1cccc(CC[C@H](SC[C@@H](C)C(=O)O)c2cccc(/C=C/c3ccc4ccc(Cl)cc4n3)c2)c1 | 6 | 7 | 
5 | CC(=O)c1cccc(CC[C@H](SC[C@@H](C)C(=O)O)c2cccc(/C=C/c3ccc4ccc(Cl)cc4n3)c2)c1 | 2 | 5.9 | 
6 | CCC(=O)c1ccccc1CC[C@H](SC[C@@H](C)C(=O)O)c1cccc(/C=C/c2ccc3ccc(Cl)cc3n2)c1 | 13 | 3.7 | 
7 | CCOC(=O)c1ccccc1CC[C@H](SC[C@@H](C)C(=O)O)c1cccc(/C=C/c2ccc3ccc(Cl)cc3n2)c1 | 4.8 | 3.7 | 

Stronger by IC50 [2], values ahead:

Row | clearance [1] [mL/min/kg] | IC50 [2] [nM] | bioavailability [3] [%] | Structure (SMILES)
8 | 6 | 2 |  | C[C@H](CS[C@@H](CCc1ccccc1C=O)c1cccc(/C=C/c2ccc3ccc(Cl)cc3n2)c1)C(=O)O
9 | 33 | 1 |  | C[C@H](CS[C@@H](CCc1ccccc1CC(C)(C)O)c1cccc(/C=C/c2ccc3ccc(Cl)cc3n2)c1)C(=O)O
10 | 2.5 | 2.1 |  | C[C@H](CS[C@@H](CCc1cccc(CO)c1)c1cccc(/C=C/c2ccc3ccc(Cl)cc3n2)c1)C(=O)O
11 | 14 | 2.7 |  | C[C@H](CS[C@@H](CCc1ccccc1C(C)(C)O)c1cccc(/C=C/c2ccc3ccc(Cl)cc3n2)c1)C(=O)O
